# Laboratory results from patent US12655116B2, “Substituted isophthalic acid diamides” (Bayer Aktiengesellschaft, priority 2020, dated 2026).
# Key:
# [1] = system: ALOMY; assay: Post-emergence herbicidal action against ALOMY; assay type: in vivo, Alopecurus myosuroides; details: Alopecurus myosuroides, 504 h, dosage 20 g/ha, visual assessment about 3 weeks after treatment vs untreated controls
# Summary of the method: (§1)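 Visual % rating (0% = as untreated, 100% = dead) ~3 wk after spraying one-leaf-stage plants grown in sandy loam; WP/EC in water at 600–800 l/ha, 0.2% wetting agent.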
# [2] = system: ECHCG; assay: Post-emergence herbicidal action against ECHCG; assay type: in vivo, Echinochloa crus-galli
# Summary of the method: as §1
# [3] = system: PHBPU; assay: Post-emergence herbicidal action against PHBPU; assay type: in vivo, Pharbitis purpurea; details: dosage 20 g/ha
# Summary of the method: as §1
# [4] = system: VIOTR; assay: Pre-emergence herbicidal action against VIOTR; assay type: in vivo, Viola tricolor
# Summary of the method: (§2)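 Sandy loam pots, seeds covered with soil, then surface-treated with WP or EC formulations at 600–800 l/ha water plus 0.2% wetting agent. Greenhouse, 3 weeks. Percent damage vs untreated controls.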
# [5] = system: MATIN; assay: Pre-emergence herbicidal action against MATIN; assay type: in vivo, Matricaria inodora
# Summary of the method: as §2
# [6] = system: MATIN; assay: Post-emergence herbicidal action against MATIN; assay type: in vivo, Matricaria inodora
# Summary of the method: as §1
# [7] = system: ECHCG; assay: Pre-emergence herbicidal action against ECHCG; assay type: in vivo, Echinochloa crus-galli; details: 80 g/ha
# Summary of the method: as §2
# [8] = system: AMARE; assay: Pre-emergence herbicidal action against AMARE; assay type: in vivo, Amaranthus retroflexus
# Summary of the method: as §2
# [9] = system: VERPE; assay: Pre-emergence herbicidal action against VERPE; assay type: in vivo, Veronica persica; details: dosage 80 g/ha
# Summary of the method: as §2
# [10] = system: POLCO; assay: Pre-emergence herbicidal action against POLCO; assay type: in vivo, Polygonum convolvulus; details: dosage 80 g/ha
# Summary of the method: as §2
# [11] = system: AMARE; assay: Post-emergence herbicidal action against AMARE; assay type: in vivo, Amaranthus retroflexus; details: 20 g/ha, visual assessment about 3 weeks after treatment, 100% = plants have died, 0% = like control plants
# Summary of the method: as §1
# [12] = system: SETVI; assay: Pre-emergence herbicidal action against SETVI; assay type: in vivo, Setaria viridis; details: dosage 80 g/ha
# Summary of the method: as §2
# [13] = system: PHBPU; assay: Pre-emergence herbicidal action against PHBPU; assay type: in vivo, Pharbitis purpurea; details: dosage 80 g/ha
# Summary of the method: as §2
# [14] = system: DIGSA; assay: Pre-emergence herbicidal action against DIGSA; assay type: in vivo, Digitaria sanguinalis
# Summary of the method: as §2
# [15] = system: ALOMY; assay: Pre-emergence herbicidal action against ALOMY; assay type: in vivo, Alopecurus myosuroides; details: Alopecurus myosuroides, 504 h; 80 g/ha, pre-emergence, scored visually after 3 weeks vs untreated controls (100% = plants have died, 0% = like control plants)
# Summary of the method: as §2
# [16] = system: DIGSA; assay: Post-emergence herbicidal action against DIGSA; assay type: in vivo, Digitaria sanguinalis
# Summary of the method: as §1
# [17] = system: ABUTH; assay: Pre-emergence herbicidal action against ABUTH; assay type: in vivo, Abutilon theophrasti
# Summary of the method: as §2
# [18] = system: AVEFA; assay: Pre-emergence herbicidal action against AVEFA; assay type: in vivo, Avena fatua; details: Avena fatua, 504 h; 80 g/ha, pre-emergence
# Summary of the method: as §2
# [19] = system: SETVI; assay: Post-emergence herbicidal action against SETVI; assay type: in vivo, Setaria viridis
# Summary of the method: as §1
# [20] = system: VERPE; assay: Post-emergence herbicidal action against VERPE; assay type: in vivo, Veronica persica; details: 20 g/ha
# Summary of the method: as §1
# [21] = system: VIOTR; assay: Post-emergence herbicidal action against VIOTR; assay type: in vivo, Viola tricolor
# Summary of the method: as §1
# [22] = system: ABUTH; assay: Post-emergence herbicidal action against ABUTH; assay type: in vivo, Abutilon theophrasti; details: dosage 20 g/ha, visual assessment about 3 weeks after treatment vs untreated controls
# Summary of the method: as §1
# [23] = Tripleurospermum inodorum, 504 h, dosage 20 g/ha
# [24] = 80 g/ha, scored visually after 3 weeks vs untreated controls (100% = plants have died, 0% = like control plants)
compound,measurement,setting,value
Cn1nnnc1NC(=O)c1ccc(C(F)F)c(C(=O)NCC(F)(F)F)c1Br [Example 1-229],pest or weed control at 20 g/ha,[1],80%
same,pest or weed control at 5 g/ha,"[2]; Echinochloa crus-galli, 504 h, dosage 5 g/ha",90%
same,pest or weed control at 20 g/ha,"[2]; Echinochloa crus-galli, 504 h, dosage 20 g/ha",90%
same,pest or weed control at 20 g/ha,"[3]; Ipomoea purpurea, 504 h",80%
same,pest or weed control at 80 g/ha,"[4]; Viola tricolor, 504 h, dosage 80 g/ha",100%
same,pest or weed control at 20 g/ha,[5]; [23],100%
same,pest or weed control at 80 g/ha,"[5]; Tripleurospermum inodorum, 504 h, dosage 80 g/ha",100%
same,pest or weed control at 20 g/ha,[6]; [23],80%
same,pest or weed control at 80 g/ha,"[7]; Echinochloa crus-galli, 504 h",80%
same,pest or weed control at 20 g/ha,"[8]; Amaranthus retroflexus, 504 h, 20 g/ha, scored visually after 3 weeks vs untreated controls, 100% = plants have died, 0% = like control plants",100%
same,pest or weed control at 80 g/ha,"[8]; Amaranthus retroflexus, 504 h, 80 g/ha, scored visually after 3 weeks vs untreated controls, 100% = plants have died, 0% = like control plants",100%
same,pest or weed control at 80 g/ha,"[9]; Veronica persica, 504 h",100%
same,pest or weed control at 80 g/ha,"[10]; Fallopia convolvulus, 504 h",80%
same,pest or weed control at 20 g/ha,"[11]; Amaranthus retroflexus, 504 h",90%
same,pest or weed control at 80 g/ha,"[12]; Setaria viridis, 504 h",100%
same,pest or weed control at 80 g/ha,"[13]; Ipomoea purpurea, 504 h",90%
same,pest or weed control at 20 g/ha,"[14]; Digitaria sanguinalis, 504 h, dosage 20 g/ha",100%
same,pest or weed control at 80 g/ha,"[14]; Digitaria sanguinalis, 504 h, dosage 80 g/ha",100%
same,pest or weed control at 80 g/ha,[15],90%
same,pest or weed control at 5 g/ha,"[16]; Digitaria sanguinalis, 504 h, 5 g/ha",90%
same,pest or weed control at 20 g/ha,"[16]; Digitaria sanguinalis, 504 h, 20 g/ha",90%
same,pest or weed control at 80 g/ha,"[17]; Abutilon theophrasti, 504 h, 80 g/ha, scored visually after 3 weeks vs untreated controls (100% = plants have died, 0% = like control plants)",100%
same,pest or weed control at 20 g/ha,"[17]; Abutilon theophrasti, 504 h, dosage 20 g/ha, scored visually after 3 weeks vs untreated controls, 100% = plants have died, 0% = like control plants, read-out: Pre-emergence action against ABUTH (herbicidal activity in percent)",90%
same,pest or weed control at 80 g/ha,[18],80%
same,pest or weed control at 5 g/ha,"[19]; Setaria viridis, 504 h, dosage 5 g/ha",80%
same,pest or weed control at 20 g/ha,"[19]; Setaria viridis, 504 h, dosage 20 g/ha",90%
CCn1nnnc1NC(=O)c1ccc(C(F)F)c(C(=O)NC2CC2)c1C1CC1 [Example 2-306],Post-emergence action against VERPE in %,[20],90%
same,Post-emergence action against ECHCG in %,[2]; dosage 5 g/ha,90%
same,Post-emergence action against ECHCG in %,[2]; dosage 20 g/ha,90%
same,Post-emergence action against PHBPU in %,[3],80%
same,Pre-emergence action against VIOTR in %,[4]; dosage 20 g/ha,100%
same,Pre-emergence action against VIOTR in %,[4]; dosage 80 g/ha,100%
same,Pre-emergence action against MATIN in %,[5]; dosage 20 g/ha,90%
same,Pre-emergence action against MATIN in %,[5]; dosage 80 g/ha,100%
same,Post-emergence action against VIOTR in %,[21]; 5 g/ha,90%
same,Post-emergence action against VIOTR in %,[21]; 20 g/ha,90%
same,Post-emergence action against MATIN in %,[6]; dosage 5 g/ha,80%
same,Post-emergence action against MATIN in %,[6]; dosage 20 g/ha,90%
same,Pre-emergence action against ECHCG in %,[7],100%
same,Pre-emergence action against AMARE in %,"[8]; 20 g/ha, scored visually after 3 weeks vs untreated controls, 100% = plants have died, 0% = like control plants",90%
same,Pre-emergence action against AMARE in %,[8]; [24],100%
same,Pre-emergence action against VERPE in %,[9],100%
same,Pre-emergence action against POLCO in %,[10],80%
same,Post-emergence action at 20 g/ha against AMARE in %,[11],90%
same,Pre-emergence action against SETVI in %,[12],100%
same,Pre-emergence action against PHBPU in %,[13],100%
same,Pre-emergence action against DIGSA in %,[14]; dosage 20 g/ha,100%
same,Pre-emergence action against DIGSA in %,[14]; dosage 80 g/ha,100%
same,Post-emergence action against DIGSA in %,[16]; 5 g/ha,80%
same,Post-emergence action against DIGSA,[16]; 20 g/ha,90%
same,Pre-emergence action against ABUTH (herbicidal activity),[17]; [24],100%
same,Pre-emergence action against ABUTH (herbicidal activity in percent),"[17]; dosage 20 g/ha, scored visually after 3 weeks vs untreated controls, 100% = plants have died, 0% = like control plants",100%
same,Post-emergence action against SETVI in %,[19]; dosage 5 g/ha,80%
same,Post-emergence action against SETVI in %,[19]; dosage 20 g/ha,80%
same,Post-emergence action against ABUTH in %,[22],80%
